Experimental data as given in US20260000075A1, “HERBICIDAL MALONIC ACID MONOAMIDES AND MALONAMIDE ESTERS” (BASF SE, priority 2022, published 2026).

Columns and labels:
ECHCG = experiment: greenhouse pre-emergence herbicidal test; assay type: in vivo, Echinocloa crus-galli; details: pre-emergence method, scale from 0 to 100
From the text: (§1) The culture containers used were plastic flowerpots containing loamy sand with approximately 3.0% of humus as the substrate. The seeds of the test plants were sown separately for each species.
(§2) For the pre-emergence treatment, the active ingredients, which had been suspended or emulsified in water, were applied directly after sowing by means of finely distributing nozzles. The containers were irrigated gently to promote germination and growth and subsequently covered with transparent plastic hoods until the test plants had rooted.
(§3) This cover caused uniform germination of the test plants, unless this had been impaired by the active ingredients.
(§4) Depending on the species, the test plants were kept at 10-25° C. or 20-35° C., respectively.
(§5) The test period extended over 2 to 4 weeks. During this time, the test plants were tended, and their response to the individual treatments was evaluated.
(§6) Evaluation was carried out using a scale from 0 to 100. 100 means no emergence of the test plants, or complete destruction of at least the aerial moieties, and 0 means no damage, or normal course of growth. A good herbicidal activity is given at values of 70 to <90 and a very good herbicidal activity is given at values of 90 to 100.
(§7) The test plants used in the greenhouse experiments were of the following species: […]

SETFA = experiment: greenhouse pre-emergence herbicidal test; assay type: in vivo, Setaria faberi; details: pre-emergence method, application rate 0.500 kg/ha, scale from 0 to 100
From the text: as §1, §2, §3, §4, §5, §6, §7

APESV = experiment: greenhouse pre-emergence herbicidal test; assay type: in vivo, Apera spica-venti; details: pre-emergence method, scale from 0 to 100
From the text: as §1, §2, §3, §4, §5, §6, §7

ALOMY = experiment: greenhouse post-emergence herbicidal test; assay type: in vivo, Alopercurus myosuroides; details: post-emergence method, scale from 0 to 100
From the text: as §1
(§8) For the post-emergence treatment, the test plants were first grown to a height of 3 to 15 cm, depending on the plant habit, and only then treated with the active ingredients which had been suspended or emulsified in water. For this purpose, the test plants were either sown directly and grown in the same containers, or they were first grown separately as seedlings and transplanted into the test containers a few days prior to treatment.
as §4, §5, §6, §7

AMARE [1] = experiment: greenhouse pre-emergence herbicidal test; assay type: in vivo, Amaranthus retroflexus; details: pre-emergence method, scale from 0 to 100
From the text: as §1, §2, §3, §4, §5, §6, §7

SETVI [2] = experiment: greenhouse pre-emergence herbicidal test; assay type: in vivo, Setaria viridis; details: pre-emergence method, application rate 0.500 kg/ha, scale from 0 to 100
From the text: as §1, §2, §3, §4, §5, §6, §7

AVEFA = experiment: greenhouse post-emergence herbicidal test; assay type: in vivo, Avena fatua; details: post-emergence method, application rate 1.000 kg/ha, scale from 0 to 100
From the text: as §1, §8, §4, §5, §6, §7

AMARE [3] = experiment: greenhouse post-emergence herbicidal test; assay type: in vivo, Amaranthus retroflexus; details: post-emergence method, application rate 1.000 kg/ha, scale from 0 to 100
From the text: as §1, §8, §4, §5, §6, §7

DIGSA = experiment: greenhouse pre-emergence herbicidal test; assay type: in vivo, Digitaria sanguinalis; details: pre-emergence method, application rate 1.000 kg/ha, scale from 0 to 100
From the text: as §1, §2, §3, §4, §5, §6, §7

LOLMU = experiment: greenhouse pre-emergence herbicidal test; assay type: in vivo, Lolium multiflorum; details: pre-emergence method, application rate 1.000 kg/ha, scale from 0 to 100
From the text: as §1, §2, §3, §4, §5, §6, §7

SETVI [4] = experiment: greenhouse post-emergence herbicidal test; assay type: in vivo, Setaria viridis; details: post-emergence method, application rate 0.250 kg/ha, scale from 0 to 100
From the text: as §1, §8, §4, §5, §6, §7

## 5-[(3,5-difluorophenyl)carbamoyl]-hydrofuran-5-carboxylic acid [compound 1.7]
ECHCG; application rate 0.500 kg/ha
  herbicidal activity against ECHCG: good (A good herbicidal activity is given at values of 70 to <90)
SETFA
  herbicidal activity against SETFA: good (A good herbicidal activity is given at values of 70 to <90)
APESV; application rate 0.500 kg/ha
  herbicidal activity against APESV: very good (a very good herbicidal activity is given at values of 90 to 100)
ALOMY; application rate 0.500 kg/ha
  herbicidal activity against ALOMY: very good (a very good herbicidal activity is given at values of 90 to 100)

## CC1=CCOC1(C(=O)O)C(=O)Nc1cc(Cl)cc(Cl)c1 (stereo not shown) [compound 1.6]
APESV; application rate 0.125 kg/ha
  herbicidal activity against APESV: good (A good herbicidal activity is given at values of 70 to <90)
AMARE [1]; application rate 0.125 kg/ha
  herbicidal activity against AMARE: good (A good herbicidal activity is given at values of 70 to <90)

## CSCCOC(=O)C1(C(=O)Nc2cc(F)cc(F)c2)C=CCO1 (stereo not shown) [compound 1.9]
SETVI [2]
  herbicidal activity against SETVI: very good (a very good herbicidal activity is given at values of 90 to 100)

## CCOC(=O)C1(C(=O)Nc2cc(F)cc(F)c2)CC=CO1 (stereo not shown) [compound 1.25, ethyl 2-[(3,5-difluorophenyl)carbamoyl]-3H-furan-2-carboxylate]
ALOMY; application rate 0.250 kg/ha
  herbicidal activity against ALOMY: very good (a very good herbicidal activity is given at values of 90 to 100)

## O=C(O)C1(C(=O)Nc2cc(F)cc(F)c2)CC=CO1 (stereo not shown) [compound 1.26, 2-[(3,5-difluorophenyl)carbamoyl]-3H-furan-2-carboxylate]
AVEFA
  herbicidal activity against AVEFA: very good (a very good herbicidal activity is given at values of 90 to 100)
AMARE [3]
  herbicidal activity against AMARE: good (A good herbicidal activity is given at values of 70 to <90)
DIGSA
  herbicidal activity against DIGSA: very good (a very good herbicidal activity is given at values of 90 to 100)
LOLMU
  herbicidal activity against LOLMU: very good (a very good herbicidal activity is given at values of 90 to 100)

## CCOC(=O)C1(C(=O)Nc2cc(Cl)cc(Cl)c2)CCO1 (stereo not shown) [compound 11.1, ethyl 2-[(3,5-dichlorophenyl)carbamoyl]oxetane-2-carboxylate]
ECHCG; application rate 1.000 kg/ha
  herbicidal activity against ECHCG: good (A good herbicidal activity is given at values of 70 to <90)
APESV; application rate 1.000 kg/ha
  herbicidal activity against APESV: good (A good herbicidal activity is given at values of 70 to <90)

## O=C(O)C1(C(=O)Nc2cc(F)cc(F)c2)CCO1 (stereo not shown) [compound 11.5]
SETVI [4]
  herbicidal activity against SETVI: very good (a very good herbicidal activity is given at values of 90 to 100)

## CS(=O)(=O)CCOC(=O)C1(C(=O)Nc2cc(F)cc(F)c2)CCO1 (stereo not shown) [compound 11.8]
AMARE [1]; application rate 0.250 kg/ha
  herbicidal activity against AMARE: good (A good herbicidal activity is given at values of 70 to <90)
